Measurements published in patent US9809587B2, “Pesticidally active heterocyclic derivatives with sulphur containing substituents” (Syngenta Participations AG, priority 2014, dated 2017).

Tests used:
Type in all cases: in vivo
[1] = test system: Bemisia tabaci (Cotton White Fly); test: Bemisia tabaci (cotton white fly), sprayed cotton leaf discs; conditions: foliar, 144 h, application rate of 200 ppm, adult white flies on cotton leaf discs, 6 days after incubation
Method: Example B1: Bemisia tabaci (Cotton White Fly)
Cotton leaf discs were placed on agar in 24-well microtiter plates and sprayed with aqueous test solutions prepared from 10′000 ppm DMSO stock solutions. After drying the leaf discs were infested with adult white flies. The samples were checked for mortality 6 days after incubation.

[2] = test system: Diabrotica balteata (Corn Root Worm); test: Diabrotica balteata (corn root worm), sprayed maize sprouts; conditions: 96 h, application rate of 200 ppm, L2 larvae on maize sprouts, 4 days after infestation
Method: Example B2: Diabrotica balteata (Corn Root Worm)
Maize sprouts, placed on an agar layer in 24-well microtiter plates were treated with aqueous test solutions prepared from 10′000 ppm DMSO stock solutions by spraying. After drying, the plates were infested with L2 larvae (6 to 10 per well). The samples were assessed for mortality and growth inhibition in comparison to untreated samples 4 days after infestation.

[3] = test system: Euschistus heros (Neotropical Brown Stink Bug); test: Euschistus heros (neotropical brown stink bug), sprayed soybean leaf; conditions: 120 h, application rate of 200 ppm, N-2 nymphs on soybean leaf, 5 days after infestation
Method: Example B3: Euschistus heros (Neotropical Brown Stink Bug)
Soybean leaf on agar in 24-well microtiter plates were sprayed with aqueous test solutions prepared from 10′000 ppm DMSO stock solutions. After drying the leaf were infested with N-2 nymphs. The samples were assessed for mortality in comparison to untreated samples 5 days after infestation.

[4] = test system: Myzus persicae (Green Peach Aphid); test: Myzus persicae (green peach aphid), sprayed sunflower leaf discs; conditions: foliar, 144 h, application rate of 200 ppm, mixed ages on sunflower leaf discs, 6 days after infestation
Method: Example B4: Myzus persicae (Green Peach Aphid)
Sunflower leaf discs were placed on agar in a 24-well microtiter plate and sprayed with aqueous test solutions prepared from 10′000 ppm DMSO stock solutions. After drying, the leaf discs were infested with an aphid population of mixed ages. The samples were assessed for mortality 6 days after infestation.

[5] = test system: Plutella xylostella (Diamond Back Moth); test: Plutella xylostella (diamond back moth), treated artificial diet; conditions: 120 h, application rate of 200 ppm, L2 larvae on artificial diet, 5 days after infestation, read-out: effect in at least one of the two categories (mortality or growth inhibition)
Method: Example B6: Plutella xylostella (Diamond Back Moth)
24-well microtiter plates with artificial diet were treated with aqueous test solutions prepared from 10′000 ppm DMSO stock solutions by pipetting. After drying, the plates were infested with L2 larvae (10 to 15 per well). The samples were assessed for mortality and growth inhibition in comparison to untreated samples 5 days after infestation.
The following compounds gave an effect of at least 80% in at least one of the two categories (mortality or growth inhibition) at an application rate of 200 ppm: […]

[6] = test system: Spodoptera littoralis (Egyqptian Cotton Leaf Worm); test: Spodoptera littoralis (Egyptian cotton leaf worm), sprayed cotton leaf discs; conditions: foliar, 72 h, application rate of 200 ppm, L1 larvae on cotton leaf discs, 3 days after infestation
Method: Example B7: Spodoptera littoralis (Egyqptian Cotton Leaf Worm)
Cotton leaf discs were placed on agar in 24-well microtiter plates and sprayed with aqueous test solutions prepared from 10′000 ppm DMSO stock solutions. After drying the leaf discs were infested with five L1 larvae. The samples were assessed for mortality, anti-feedant effect, and growth inhibition in comparison to untreated samples 3 days after infestation. Control of Spodoptera littoralis by a test sample is when at least one of mortality, anti-feedant effect, and growth inhibition is higher than the untreated sample.

[7] = test system: Spodoptera littoralis (Egyqptian Cotton Leaf Worm); test: Spodoptera littoralis (Egyptian cotton leaf worm), compound in agar taken up by lettuce roots; conditions: 144 h, test rate of 12.5 ppm, uptake by lettuce roots from agar, 6 days after infestation, read-out: effect in at least one of the three categories (mortality, anti-feedancy, or growth inhibition)
Text: Example B8: Spodoptera littoralis (Egyqptian Cotton Leaf Worm)
Test compounds were applied by pipette from 10′000 ppm DMSO stock solutions into 24-well plates and mixed with agar. Lettuce seeds were placed on the agar and the multi well plate was closed by another plate which contains also agar. After 7 days the roots have absorbed the compound and the lettuce has grown into the lid plate. The lettuce leafs were now cut off into the lid plate. Spodoptera eggs were pipetted through a plastic stencil on a humid gel blotting paper and the plate closed with it. The samples were assessed for mortality, anti-feedant effect and growth inhibition in comparison to untreated samples 6 days after infestation.
The following compounds gave an effect of at least 80% in at least one of the three categories (mortality, anti-feedancy, or growth inhibition) at a test rate of 12.5 ppm: […]

[8] = test system: Myzus persicae (Green Peach Aphid); test: Myzus persicae (green peach aphid), roots of pea seedlings in test solution; conditions: 144 h, test rate of 24 ppm, roots of infested pea seedlings in test solution, 6 days
Method: Example B5: Myzus persicae (Green Peach Aphid)
Roots of pea seedlings infested with an aphid population of mixed ages were placed directly in the aqueous test solutions prepared from 10′000 DMSO stock solutions. The samples were assessed for mortality 6 days after placing seedlings in test solutions.

CCS(=O)(=O)c1cc(-c2cnc(Cl)nc2)cnc1-c1nc2cc(C(F)(F)F)ncc2n1C [Compound P10]
≥ 80%: mortality at 200 ppm [1]

CCS(=O)(=O)c1cc(-c2ncc(Cl)cc2Cl)cnc1-c1nc2cc(C(F)(F)F)ncc2n1C [Compound P44]
≥ 80%: mortality at 200 ppm [2] | mortality at 200 ppm [3] | mortality at 200 ppm [4] | percent effect (mortality or growth inhibition) at 200 ppm [5] | percent control (mortality, anti-feedant effect or growth inhibition) at 200 ppm [6] | percent control (mortality, anti-feedancy or growth inhibition) at 12.5 ppm [7]

CCS(=O)(=O)c1cc(-c2cncc(C)c2)cnc1-c1nc2cc(C(F)(F)F)ncc2n1C [Compound P45]
≥ 80%: mortality at 200 ppm [1] | mortality at 200 ppm [2] | mortality at 200 ppm [3] | mortality at 200 ppm [4] | percent effect (mortality or growth inhibition) at 200 ppm [5] | percent control (mortality, anti-feedant effect or growth inhibition) at 200 ppm [6]

CCS(=O)(=O)c1cc(-c2ccnc(C(F)(F)F)c2)cnc1-c1nc2cc(C(F)(F)F)ncc2n1C [Compound P46]
≥ 80%: mortality at 200 ppm [1] | mortality at 200 ppm [2] | mortality at 200 ppm [3] | mortality at 200 ppm [4] | percent effect (mortality or growth inhibition) at 200 ppm [5] | percent control (mortality, anti-feedant effect or growth inhibition) at 200 ppm [6] | percent control (mortality, anti-feedancy or growth inhibition) at 12.5 ppm [7]

CCS(=O)(=O)c1cc(-c2ncccc2NC(=O)C(F)(F)F)cnc1-c1nc2cc(C(F)(F)F)ncc2n1C [Compound P49]
≥ 80%: mortality at 200 ppm [3] | mortality at 200 ppm [4] | mortality at 24 ppm [8]

CCS(=O)(=O)c1cc(-c2ncccc2C)cnc1-c1nc2cc(C(F)(F)F)ncc2n1C [Compound P50]
≥ 80%: mortality at 200 ppm [2] | mortality at 200 ppm [3] | mortality at 200 ppm [4] | percent effect (mortality or growth inhibition) at 200 ppm [5] | percent control (mortality, anti-feedant effect or growth inhibition) at 200 ppm [6] | percent control (mortality, anti-feedancy or growth inhibition) at 12.5 ppm [7]

CCS(=O)(=O)c1cc(-c2ncccc2C(F)(F)F)cnc1-c1nc2cc(C(F)(F)F)ncc2n1C [Compound P52]
≥ 80%: mortality at 200 ppm [2] | mortality at 200 ppm [3] | mortality at 200 ppm [4] | percent effect (mortality or growth inhibition) at 200 ppm [5] | percent control (mortality, anti-feedant effect or growth inhibition) at 200 ppm [6] | percent control (mortality, anti-feedancy or growth inhibition) at 12.5 ppm [7]

CCS(=O)(=O)c1cc(-c2ncc(C(F)(F)F)cc2F)cnc1-c1nc2cc(C(F)(F)F)ncc2n1C [Compound P54]
≥ 80%: mortality at 200 ppm [2] | mortality at 200 ppm [3] | mortality at 200 ppm [4] | percent effect (mortality or growth inhibition) at 200 ppm [5] | percent control (mortality, anti-feedant effect or growth inhibition) at 200 ppm [6] | percent control (mortality, anti-feedancy or growth inhibition) at 12.5 ppm [7]

CCS(=O)(=O)c1cc(-c2cc(C)ccn2)cnc1-c1nc2cc(C(F)(F)F)ncc2n1C [Compound P57]
≥ 80%: mortality at 200 ppm [3] | mortality at 200 ppm [4] | percent effect (mortality or growth inhibition) at 200 ppm [5] | percent control (mortality, anti-feedant effect or growth inhibition) at 200 ppm [6] | percent control (mortality, anti-feedancy or growth inhibition) at 12.5 ppm [7]

CCS(=O)(=O)c1cc(-c2cccc(Cl)n2)cnc1-c1nc2cc(C(F)(F)F)ncc2n1C [Compound P59]
≥ 80%: mortality at 200 ppm [1] | mortality at 200 ppm [2] | mortality at 200 ppm [3] | mortality at 200 ppm [4] | percent effect (mortality or growth inhibition) at 200 ppm [5] | percent control (mortality, anti-feedant effect or growth inhibition) at 200 ppm [6] | percent control (mortality, anti-feedancy or growth inhibition) at 12.5 ppm [7]

CCS(=O)(=O)c1cc(-c2ccc(C#N)nc2)cnc1-c1nc2cc(C(F)(F)F)ncc2n1C [Compound P65]
≥ 80%: mortality at 200 ppm [2] | mortality at 200 ppm [3] | mortality at 200 ppm [4] | percent effect (mortality or growth inhibition) at 200 ppm [5] | percent control (mortality, anti-feedant effect or growth inhibition) at 200 ppm [6]

CCS(=O)(=O)c1cc(-c2cncc(C(F)(F)F)c2)cnc1-c1nc2cc(C(F)(F)F)ncc2n1C [Compound P66]
≥ 80%: mortality at 200 ppm [1] | mortality at 200 ppm [2] | mortality at 200 ppm [3] | mortality at 200 ppm [4] | percent effect (mortality or growth inhibition) at 200 ppm [5] | percent control (mortality, anti-feedant effect or growth inhibition) at 200 ppm [6]

CCS(=O)(=O)c1cc(-c2cccc3c2OC(F)(F)O3)cnc1-c1nc2cc(C(F)(F)F)ncc2n1C [Compound P72]
≥ 80%: mortality at 200 ppm [2] | mortality at 200 ppm [3] | mortality at 200 ppm [4] | percent effect (mortality or growth inhibition) at 200 ppm [5] | percent control (mortality, anti-feedant effect or growth inhibition) at 200 ppm [6] | percent control (mortality, anti-feedancy or growth inhibition) at 12.5 ppm [7]

CCS(=O)(=O)c1cc(-c2ccnc(Cl)c2)cnc1-c1nc2cc(C(F)(F)F)ncc2n1C [Compound P77]
≥ 80%: mortality at 200 ppm [1] | mortality at 200 ppm [2] | mortality at 200 ppm [3] | mortality at 200 ppm [4] | percent effect (mortality or growth inhibition) at 200 ppm [5] | percent control (mortality, anti-feedant effect or growth inhibition) at 200 ppm [6] | percent control (mortality, anti-feedancy or growth inhibition) at 12.5 ppm [7]

CCS(=O)(=O)c1cc(-c2cccnc2)cnc1-c1nc2cc(C(F)(F)F)ncc2n1C [Compound P80]
≥ 80%: mortality at 200 ppm [1] | mortality at 200 ppm [4] | percent effect (mortality or growth inhibition) at 200 ppm [5] | percent control (mortality, anti-feedant effect or growth inhibition) at 200 ppm [6]

CCS(=O)(=O)c1cc(-c2ccncc2)cnc1-c1nc2cc(C(F)(F)F)ncc2n1C [Compound P81]
≥ 80%: mortality at 200 ppm [1] | mortality at 200 ppm [3] | mortality at 200 ppm [4] | percent effect (mortality or growth inhibition) at 200 ppm [5]

CCS(=O)(=O)c1cc(-c2ccsc2)cnc1-c1nc2cc(C(F)(F)F)ncc2n1C [Compound P82]
≥ 80%: mortality at 200 ppm [2] | mortality at 200 ppm [4] | percent effect (mortality or growth inhibition) at 200 ppm [5] | percent control (mortality, anti-feedant effect or growth inhibition) at 200 ppm [6] | percent control (mortality, anti-feedancy or growth inhibition) at 12.5 ppm [7]

CCS(=O)(=O)c1cc(-n2cnc(C(F)(F)F)c2)cnc1-c1nc2cc(C(F)(F)F)ncc2n1C [Compound P87]
≥ 80%: mortality at 200 ppm [2] | mortality at 200 ppm [4] | mortality at 24 ppm [8]

CCS(=O)(=O)c1cc(-c2cccc(OC)n2)cnc1-c1nc2cc(C(F)(F)F)ncc2n1C [Compound P95]
≥ 80%: mortality at 200 ppm [2] | mortality at 200 ppm [3] | mortality at 200 ppm [4] | percent effect (mortality or growth inhibition) at 200 ppm [5] | percent control (mortality, anti-feedant effect or growth inhibition) at 200 ppm [6]

CCS(=O)(=O)c1cc(-n2ccc(C#N)n2)cnc1-c1nc2cc(C(F)(F)F)ncc2n1C [Compound P98]
≥ 80%: mortality at 200 ppm [2] | mortality at 200 ppm [3] | mortality at 200 ppm [4] | percent effect (mortality or growth inhibition) at 200 ppm [5] | percent control (mortality, anti-feedant effect or growth inhibition) at 200 ppm [6]

CCS(=O)(=O)c1cc(-c2nccc(C)n2)cnc1-c1nc2cc(C(F)(F)F)ncc2n1C [Compound P103]
≥ 80%: mortality at 200 ppm [1] | mortality at 200 ppm [2] | mortality at 200 ppm [3] | mortality at 200 ppm [4] | percent effect (mortality or growth inhibition) at 200 ppm [5] | percent control (mortality, anti-feedant effect or growth inhibition) at 200 ppm [6] | percent control (mortality, anti-feedancy or growth inhibition) at 12.5 ppm [7]

CCS(=O)(=O)c1cc(-c2ccnc(Cl)n2)cnc1-c1nc2cc(C(F)(F)F)ncc2n1C [Compound P105]
≥ 80%: mortality at 200 ppm [2] | mortality at 200 ppm [4] | percent effect (mortality or growth inhibition) at 200 ppm [5] | percent control (mortality, anti-feedant effect or growth inhibition) at 200 ppm [6] | percent control (mortality, anti-feedancy or growth inhibition) at 12.5 ppm [7]
